Experiment [1] is described as follows: Inhibition of Plasmodium falciparum PFT.
Experiment [2] has as its system Plasmodium falciparum. Put plainly: Antiplasmodial activity against Plasmodium falciparum 3D7. The class given is functional, organism-based.
The nature of experiment [3]: Inhibition of rat PFT.

Usually pIC50 stands for −log10 of the IC50, conventionally taken in molar units. Read a high pIC50 as a small IC50. A word on the IC50: it is the concentration that gives 50% inhibition. Low readings indicate greater potency in that assay, high ones weaker potency in that assay.

As for `C=C(C)CN(C1Cc2cc(C#N)ccc2N(Cc2cncn2C)C1)S(=O)(=O)c1cn(C)cn1` (stereo unspecified), the pIC50 in experiment [1] is recorded as 9.22; in experiment [3] it was 9.16. This molecule gave an IC50 in experiment [2] of 6.92 nM.

Turning to `Cn1cnc(S(=O)(=O)N(Cc2ccccc2)C2Cc3cc(C#N)ccc3N(Cc3cncn3C)C2)c1` (stereo unspecified), the values for the pIC50 in experiment [1] and in experiment [3] were 9.22 and 8.92, respectively. For the same molecule, half-maximal inhibition in experiment [2] (IC50) required 5.01 nM.

For the molecule `Cn1cnc(S(=O)(=O)N(CC(=O)OC(C)(C)C)C2Cc3cc(C#N)ccc3N(Cc3cncn3C)C2)c1` (stereo unspecified), the results for the pIC50 in experiment [1] and in experiment [3] were 9.05 and 8.92, respectively. For the same molecule, in experiment [2], the IC50 is 5.01 nM.

As for `Cc1ccccc1CN(C1Cc2cc(C#N)ccc2N(Cc2cncn2C)C1)S(=O)(=O)c1cn(C)cn1` (stereo unspecified), the pIC50 turned out to be 8.82 in experiment [1] and 8.47 in experiment [3]. This molecule also gave an IC50 in experiment [2] of 55 nM.

As to `Cn1cncc1CN1CC(N(Cc2ccccn2)S(=O)(=O)c2ccccn2)Cc2cc(C#N)ccc21` (stereo unspecified), the pIC50 in experiment [1] stood at 8.55; in experiment [3], 8.42. The IC50 in experiment [2] was 51.3 nM.

As for `Cn1cncc1CN1CC(N(CC(=O)NC(C)(C)C)S(=O)(=O)c2nccn2C)Cc2cc(C#N)ccc21` (stereo unspecified), the pIC50 in experiment [1] is recorded as 8.1; in experiment [3], 8.3. In experiment [2], this molecule gave an IC50 above 5010 nM.

`C=C(Br)CN(C1Cc2cc(C#N)ccc2N(Cc2cncn2C)C1)S(=O)(=O)c1cn(C)cn1` (stereo unspecified): the negative-log IC50 (pIC50) in experiment [1] is 9.4; in experiment [3], 9.1. In experiment [2], the IC50 was 6.03 nM.

As for `Cn1cnc(S(=O)(=O)N(Cc2ccc3ccccc3c2Br)C2Cc3cc(C#N)ccc3N(Cc3cncn3C)C2)c1` (stereo unspecified), the negative logarithm of the IC50 (pIC50) is recorded as 7.55 in experiment [1] and 6 in experiment [3]. Half-maximal inhibition in experiment [2] (IC50) was put at 3020 nM.

On to `Cn1cnc(S(=O)(=O)N(CC(=O)NC(C)(C)C)C2Cc3cc(C#N)ccc3N(Cc3cncn3C)C2)c1` (stereo unspecified), for which the figures for the negative-log IC50 (pIC50) in experiment [1] and in experiment [3] were 8.92 and 8.82, respectively. In experiment [2], this molecule gave an IC50 of 5.01 nM.

`Cn1cncc1CN1CC(N(CC(=O)NC(C)(C)C)S(=O)(=O)c2cccnc2)Cc2cc(C#N)ccc21` (stereo unspecified): the figures for the pIC50 in experiment [1] and in experiment [3] were 7.6 and 8.22, respectively. Moreover, in experiment [2], the IC50 is 2690 nM.

Consider `Cn1cncc1CN1CC(N(CC(=O)NC(C)(C)C)S(=O)(=O)c2ccc(F)cc2)Cc2cc(C#N)ccc21` (stereo unspecified), for which the pIC50 is reported as 7.38 in experiment [1] and 8.12 in experiment [3]. Besides, the IC50 in experiment [2] is above 5010 nM.

For the molecule `Cn1cncc1CN1CC(N(Cc2cc3nsnc3cc2Cl)S(=O)(=O)c2ccccn2)Cc2cc(C#N)ccc21` (stereo unspecified), the pIC50 in experiment [1] is on record as 7.26; in experiment [3], 8. This molecule gave a half-inhibitory concentration (IC50) in experiment [2] of 3020 nM.

On to `Cc1onc(-c2ccccc2)c1CN(C1Cc2cc(C#N)ccc2N(Cc2cncn2C)C1)S(=O)(=O)c1ccccn1` (stereo unspecified), for which the pIC50 in experiment [1] was 9.1; in experiment [3] it was 8.52. This molecule also gave an IC50 in experiment [2] of 112 nM.

For `Cn1cnc(S(=O)(=O)N(CC2CCN(C(=O)OC(C)(C)C)CC2)C2Cc3cc(C#N)ccc3N(Cc3cncn3C)C2)c1` (stereo unspecified), the figures for the pIC50 in experiment [1] and in experiment [3] were 8.96 and 8.5, respectively. In addition, the IC50 in experiment [2] was 100 nM.

Take `Cn1cncc1CN1CC(N(Cc2ccc3ccccc3c2Br)S(=O)(=O)c2ccccn2)Cc2cc(C#N)ccc21` (stereo unspecified): the values for the pIC50 in experiment [1] and in experiment [3] were 6.78 and 6.36, respectively. Further, it took 2750 nM to reach half-maximal inhibition in experiment [2] (IC50).

For `Cn1cncc1CN1CC(N(CC(=O)NC(C)(C)C)S(=O)(=O)c2ccncc2)Cc2cc(C#N)ccc21` (stereo unspecified), the pIC50 in experiment [1] worked out at 6; in experiment [3], 6.8. Besides, the IC50 in experiment [2] was above 5010 nM.

Consider `Cn1cncc1CN1CC(N(CC(=O)NC(C)(C)C)S(=O)(=O)c2ccccn2)Cc2cc(C#N)ccc21` (stereo unspecified), for which the pIC50 is on record as 8.85 in experiment [1] and 8.75 in experiment [3]. The molecule also gave an IC50 in experiment [2] of 85.1 nM.

Values taken from ChEMBL document CHEMBL1154458, “QSAR study on tetrahydroquinoline analogues as plasmodium protein farnesyltransferase inhibitors: a comparison of rationales of malarial and mammalian enzyme inhibitory activities for selectivity” (Eur J Med Chem, 2008).
